Columns and labels:
[1] = potentiation of immunosuppressive agents
E. coli UB1005 C498 = assay: MIC by microtitre broth dilution; type: cell-based; conditions: Mueller Hinton broth, 37° C., 24 h, aerobic
Procedure: (§1) MIC assays were conducted essentially as described by Amsterdam, D. 1996, “Susceptibility testing of antimicrobials in liquid media”, p. 52-111, in Loman, V., ed. Antibiotics in laboratory medicine, 4th ed. Williams and Wilkins, Baltimore, Md.

[2] = system: K. pneumoniae ATCC13883 C238; assay: MIC by microtitre broth dilution; type: cell-based; conditions: Mueller Hinton broth, 37° C., 24 h, aerobic
Procedure: as §1

[3] = system: P. aeruginosa PAE/K799 H187; assay: MIC by microtitre broth dilution; type: cell-based; conditions: Mueller Hinton broth, 37° C., 24 h, aerobic
Procedure: as §1

S. aureus ATCC25923 C622 = assay: MIC by microtitre broth dilution; type: cell-based; conditions: Mueller Hinton broth, 37° C., 24 h, aerobic
Procedure: as §1

S. epidermidis C621 = assay: MIC by microtitre broth dilution; type: cell-based; conditions: Mueller Hinton broth, 37° C., 24 h, aerobic
Procedure: as §1

S. pyogenes C721 = assay: MIC by microtitre broth dilution; type: cell-based; conditions: Todd Hewitt broth, 37° C., 24 h, aerobic
Procedure: as §1

[4] = cited from earlier work; for solubility in alcohol / ethanol: alcohol or ethanol
C. glabrata = assay: antifungal activity against C. glabrata; type: cell-based
[5] = biological target: protein tyrosine phosphatase 1B (PTP1B) (Homo sapiens, UniProt P18031); conditions: cited from earlier work
Chain of protein tyrosine phosphatase 1B (PTP1B) (P18031 whole entry): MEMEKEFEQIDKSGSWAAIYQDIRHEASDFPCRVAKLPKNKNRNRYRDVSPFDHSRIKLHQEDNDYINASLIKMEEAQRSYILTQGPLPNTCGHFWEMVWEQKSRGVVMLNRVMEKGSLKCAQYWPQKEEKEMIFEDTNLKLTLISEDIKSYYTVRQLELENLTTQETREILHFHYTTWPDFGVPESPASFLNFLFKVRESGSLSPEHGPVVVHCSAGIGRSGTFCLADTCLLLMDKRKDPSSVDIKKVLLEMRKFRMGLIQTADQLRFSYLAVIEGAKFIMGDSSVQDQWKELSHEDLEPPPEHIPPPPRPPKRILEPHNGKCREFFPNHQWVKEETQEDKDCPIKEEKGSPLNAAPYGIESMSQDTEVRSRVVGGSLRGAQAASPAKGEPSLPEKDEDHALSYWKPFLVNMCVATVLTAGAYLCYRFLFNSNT

[6] = system: phosphatases of regenerating liver (PRL); conditions: cited from earlier work
endo-exonuclease = conditions: cited from earlier work

Compound	Minimum inhibitory concentration, E. coli UB1005 C498 wt Gram− (E. coli UB1005 C498)	Minimum inhibitory concentration, K. pneumoniae ATCC13883 C238 wt Gram− [2]	Minimum inhibitory concentration, P. aeruginosa PAE/K799 H187 Wt Gram− [3]	Minimum inhibitory concentration, S. aureus ATCC25923 C622 wt Gram+ (S. aureus ATCC25923 C622)	Minimum inhibitory concentration, S. epidermidis C621 wt Gram+ (S. epidermidis C621)	Minimum inhibitory concentration, S. pyogenes C721 wt Gram+ (S. pyogenes C721)	further results
Oc1cc(Cl)ccc1Oc1ccc(Cl)cc1Cl [triclosan]	–	–	–	–	–	–	effect on potency of an immunosuppressive agent (e.g. cyclosporine) [1]: increases the potency
COc1cccc2c1C(=O)c1c(O)c3c(c(O)c1C2=O)C[C@@](O)(C(=O)CO)C[C@@H]3O[C@H]1C[C@H](N)[C@H](O)[C@H](C)O1 [doxorubicin]	10^−4 Molar	10^−6 Molar	10^−5 Molar	10^−5 Molar	10^−6 Molar	10^−7 Molar	–
Sc1ncnc2nc[nH]c12 [6-mercaptopurine]	N	N	N	N	N	N	–
O=c1[nH]cc(F)c(=O)[nH]1 [5-fluorouracil]	10^−6 Molar	10^−6 Molar	10^−5 Molar	10^−7 Molar	10^−7 Molar	10^−4 Molar	–
CCN(CC)C(C)CN1c2ccccc2Sc2ccccc21 (centres unmarked) [Ethopropazine, ethopropazine]	–	–	–	–	–	–	effect on potency of an immunosuppressive agent (e.g. cyclosporine) [1]: increases the potency
NC(=O)c1ncn([C@@H]2O[C@H](CO)[C@@H](O)[C@H]2O)n1 [Ribavirin, ribavirin]	–	–	–	–	–	–	solubility in alcohol / ethanol [4]: only slightly soluble
CN(Cc1cnc2nc(N)nc(N)c2n1)c1ccc(C(=O)N[C@@H](CCC(=O)O)C(=O)O)cc1 [methotrexate]	N	10^−6 Molar	N	10^−5 Molar	N	10^−6 Molar	–
Nc1ccn([C@@H]2O[C@H](CO)[C@@H](O)[C@@H]2O)c(=O)n1 [Cytarabine, cytarabine]	N	N	N	N	N	N	–
Sc1ncc2[nH]cnc2n1 [2-mercaptopurine]	N	N	N	N	N	N	–
CN(C)C(=O)C(CCN1CCC(O)(c2ccc(Cl)cc2)CC1)(c1ccccc1)c1ccccc1 [Loperamide]	–	–	–	–	–	–	effect on potency of an immunosuppressive agent (e.g. cyclosporine) [1]: increase the potency
N.N.[Cl][Pt][Cl] [cisplatin]	N	N	10^−4 Molar	N	N	N	–
CCC(C)n1ncn(-c2ccc(N3CCN(c4ccc(OC[C@H]5CO[C@](Cn6cncn6)(c6ccc(Cl)cc6Cl)O5)cc4)CC3)cc2)c1=O (mixture of isomers) [itraconazole]	–	–	–	–	–	–	enhancement of antifungal activity by a manganese compound (C. glabrata): enhances
Nc1ccc(/N=N/c2ccccc2)c(N)n1 [Phenazopyridine, phenazopyridine]	–	–	–	–	–	–	solubility in alcohol / ethanol [4]: slightly soluble in water and alcohol; solubility in water ([4]; water): slightly soluble in water and alcohol
CC[C@H](C)C[C@H](C)CCCCCCCCC(=O)N[C@H]1C[C@@H](O)[C@@H](NCCN)NC(=O)[C@@H]2[C@@H](O)CCN2C(=O)[C@H]([C@H](O)CCN)NC(=O)[C@H]([C@H](O)[C@@H](O)c2ccc(O)cc2)NC(=O)[C@@H]2C[C@@H](O)CN2C(=O)[C@H]([C@@H](C)O)NC1=O [caspofungin]	–	–	–	–	–	–	enhancement of antifungal activity by a manganese compound (C. glabrata): enhances
N=C(N)c1ccc(OCCCCCOc2ccc(C(=N)N)cc2)cc1 [pentamidine]	–	–	–	–	–	–	inhibition of PTP1B [5]: effective inhibitor; inhibition of oncogenic phosphatases of regenerating liver (PRL) [6]: potent inhibitor; inhibition of endo-exonuclease activity (endo-exonuclease): inhibit
COc1cc([C@@H]2c3cc4c(cc3[C@@H](O[C@@H]3O[C@@H]5CO[C@@H](C)O[C@H]5[C@H](O)[C@H]3O)[C@H]3COC(=O)[C@H]23)OCO4)cc(OC)c1O [etoposide]	N	10^−5 Molar	N	10^−5 Molar	10^−6 Molar	10^−5 Molar	–
CN(C/C=C/C#CC(C)(C)C)Cc1cccc2ccccc12.Cl [terbinafine]	–	–	–	–	–	–	enhancement of antifungal activity by a manganese compound (C. glabrata): enhances
Nc1ncnc2c1ccn2[C@@H]1O[C@H](CO)[C@@H](O)[C@H]1O [tubercidin]	N	N	N	N	N	N	–
OC(Cn1cncn1)(Cn1cncn1)c1ccc(F)cc1F [fluconazole]	–	–	–	–	–	–	enhancement of antifungal activity by a manganese compound (C. glabrata): enhances
O=C1c2c(O)ccc(O)c2C(=O)c2c(NCCNCCO)ccc(NCCNCCO)c21 [mitoxantrone]	10^−5 Molar	10^−6 Molar	10^−5 Molar	10^−5 Molar	10^−5 Molar	10^−6 Molar	–
CC[C@@]1(O)C(=O)OCc2c1cc1n(c2=O)Cc2cc3ccccc3nc2-1 [camptothecin]	N	N	N	N	10^−4 Molar	N	–
CNCCCC12CCC(c3ccccc31)c1ccccc12 [maprotiline]	–	–	–	–	–	–	effect on potency of an immunosuppressive agent (e.g. cyclosporine) [1]: increases the potency
NC(=O)NO [hydroxyurea]	N	N	10^−4 Molar	N	N	10^−4 Molar	–
